Laboratory results published in patent publication US20250188149A1, “ENHANCING ESTROGEN RECEPTOR ALPHA IN OSTEOARTHRITIS” (University of Pittsburgh - Of the Commonwealth System of …, priority 2022, published 2025).

Assays:
[1] = patients with knee OA, intra-articular injection, phase II clinical trial, vs placebo; cited from earlier work
[2] = tested on: healthy human chondrocytes; test: DOX-induced DNA damage and senescence in healthy human chondrocytes; settings: 100 nM DOX, 3 days, vs vehicle

SMILES	reduction of joint pain and stiffness [1]	DNA damage (p21, γH2AX levels, comet assay) [2]	IL-6 and IL-8 expression (real-time qPCR) [2]	NF-κB pathway (NFκB gene, p-p65) [2]	SA-β-Gal staining (senescent phenotype) [2]	p16INK4A and p21 levels [2]	ERα level ([2]; western blot and IF)
CC1(C)CCC(c2ccc(Cl)cc2)=C(CN2CCN(c3ccc(C(=O)NS(=O)(=O)c4ccc(N[C@H](CCN5CCOCC5)CSc5ccccc5)c(S(=O)(=O)C(F)(F)F)c4)cc3)CC2)C1 [ABT-263]	failed to outperform a placebo						
COc1cccc2c1C(=O)c1c(O)c3c(c(O)c1C2=O)C[C@@](O)(C(=O)CO)C[C@@H]3O[C@H]1C[C@H](N)[C@H](O)[C@H](C)O1 [DOX, doxorubicin]		significant DNA damage	upregulation	activated	increased	upregulation	significantly reduced
